Reference: ChEMBL document CHEMBL1134484, “Homology modeling using multiple molecular dynamics simulations and docking studies of the human androgen receptor ligand binding domain bound to testosterone and nonsteroidal ligands” (J Med Chem, 2001)

Assays:
Androgen receptor [1] = biological target: T1, Androgen receptor (Homo sapiens, UniProt P10275); experiment: Binding affinity against human androgen receptor (hAR) in competitive binding assay; NB means No binding
T1 sequence (P10275 whole entry): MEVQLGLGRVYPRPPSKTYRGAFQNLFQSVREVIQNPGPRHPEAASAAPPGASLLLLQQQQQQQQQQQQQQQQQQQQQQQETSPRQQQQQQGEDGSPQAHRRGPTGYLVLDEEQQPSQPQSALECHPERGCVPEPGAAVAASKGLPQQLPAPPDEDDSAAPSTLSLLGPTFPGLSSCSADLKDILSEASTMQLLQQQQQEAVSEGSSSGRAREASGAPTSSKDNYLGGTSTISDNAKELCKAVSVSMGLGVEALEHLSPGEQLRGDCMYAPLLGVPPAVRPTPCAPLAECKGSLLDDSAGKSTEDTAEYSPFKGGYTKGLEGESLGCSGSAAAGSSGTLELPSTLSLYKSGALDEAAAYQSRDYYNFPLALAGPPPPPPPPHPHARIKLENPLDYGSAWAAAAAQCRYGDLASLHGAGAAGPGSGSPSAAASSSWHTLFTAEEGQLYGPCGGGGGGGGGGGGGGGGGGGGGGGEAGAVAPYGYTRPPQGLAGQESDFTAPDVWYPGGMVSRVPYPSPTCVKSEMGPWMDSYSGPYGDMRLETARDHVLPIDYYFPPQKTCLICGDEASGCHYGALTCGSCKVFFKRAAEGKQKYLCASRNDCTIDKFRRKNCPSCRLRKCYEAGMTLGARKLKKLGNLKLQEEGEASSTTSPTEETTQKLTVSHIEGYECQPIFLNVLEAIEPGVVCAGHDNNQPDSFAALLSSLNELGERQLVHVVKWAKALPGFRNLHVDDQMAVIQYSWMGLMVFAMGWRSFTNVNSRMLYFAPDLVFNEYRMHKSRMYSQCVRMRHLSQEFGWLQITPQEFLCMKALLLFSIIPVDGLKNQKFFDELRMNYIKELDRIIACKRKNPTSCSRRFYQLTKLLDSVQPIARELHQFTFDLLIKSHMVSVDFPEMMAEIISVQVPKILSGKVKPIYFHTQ

Androgen receptor [2] = biological target: T1, Androgen receptor; experiment: Binding affinity against human androgen receptor (hAR) in competitive binding assay

Ki (Androgen receptor [2]) [nM] | SMILES | Ki (Androgen receptor [1])
 | C[C@@]1(C(=O)Nc2ccc([N+](=O)[O-])c(C(F)(F)F)c2)CO1 | Not Active
80.9 | C[C@](O)(CBr)C(=O)Nc1ccc(N)c(C(F)(F)F)c1 | 
